Read-outs that look alike come from different tables or passages of the source.
Key:
Assay type in all cases: cell-based
[1] = system: viable cells in culture; assay: Cell viability assay at 10 μM (CellTiter-Glo, Table VII); details: compound 10 μM, 72 h;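 also: graded A 0-20%; B 21-40%; C 41-60%; D over 60% viable cells relative to DMSO control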
Procedure, shortened: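 Viable cell number was measured with the CellTiter-Glo Luminescent Cell Viability Assay (Promega), following the manufacturer's protocol, which quantifies ATP as a marker of metabolically active cells. In 96-well plates, 1000 cells/well in 100 μl medium were exposed to compound at 10 μM, or to DMSO control, for 72 h. Values were calculated relative to DMSO-control ATP.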

[2] = system: tumor cell; assay: Matrigel outgrowth assay/branching assay (Table Va)
Procedure, shortened: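 Cells (5000/well) were seeded onto polymerized 3 mg/ml Matrigel with compound at 3.125, 1.56 or 0.78 μM, or DMSO. Imaging by inverted microscopy at 48, 72 and 96 h scored invasive branching. Only concentrations giving total branching inhibition counted as positive.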

[3] = system: C8161; assay: Cell vitality assay (ATP assay, CellTiter-Glo); details: Homo sapiens; C8161, 72 h; Table IIa; read-out: IC50 ATP-Assay after 72 h C8161
Procedure, shortened: (§1)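 1000 cells/well were exposed to compound at 12.5 μM down to 0.195 μM (twofold steps) or DMSO for 72 h. ATP was then measured by luminescence after 10 min reagent lysis at room temperature. IC50 was taken as the concentration giving 50% of the DMSO-control ATP level.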

[4] = system: MDA-MB231; assay: Cell vitality assay (ATP assay, CellTiter-Glo); details: Homo sapiens, MDA-MB-231; MDA-MB231, 72 h; Table IIa; read-out: IC50 ATP-Assay after 72 h MDA-MB231
Procedure, shortened: as §1

[5] = system: A172; assay: Cell vitality assay (ATP assay, CellTiter-Glo); details: Homo sapiens, A 172; A172, 72 h; Table IIa; read-out: IC50 ATP-Assay after 72 h A172
Procedure, shortened: as §1

[6] = system: SF763; assay: Cell vitality assay (ATP assay, CellTiter-Glo); details: SF763, 72 h; Table IIa; read-out: IC50 ATP-Assay after 72 h SF763
Procedure, shortened: as §1

[7] = system: U138; assay: Cell vitality assay (ATP assay, CellTiter-Glo); details: U138, 72 h; Table IIa; read-out: IC50 ATP-Assay after 72 h U138
Procedure, shortened: as §1

[8] = system: Hs578T; assay: Wound healing migration assay; details: Homo sapiens, Hs-578T; HS578T cell line; Table Ib
Procedure, shortened: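 Cells seeded at 150000/24 well, grown to monolayer overnight, scratched with a pipette tip, then treated with compound at 12.5, 6.25 or 3.125 μM versus DMSO. Stopped by crystal violet fixation at 48-72 h once control wounds closed; IC50 taken as 50% wound size between t0 and t48 or t72.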

[9] = Homo sapiens, HCT-116, HCT116 def, read-out: percentage (%) of viable cells HCT 116def
[10] = Homo sapiens, HCT-116, HCT116 wt, read-out: percentage (%) of viable cells HCT 116wt
[11] = Homo sapiens, HT-29, HT29, read-out: percentage (%) of viable cells HT29
[12] = Homo sapiens, NCI-H358, H358, read-out: percentage (%) of viable cells H358
[13] = Homo sapiens, NCI-H1650, H1650, read-out: percentage (%) of viable cells H1650
[14] = Homo sapiens, NCI-H1666, H1666, read-out: percentage (%) of viable cells H1666
[15] = Homo sapiens, NCI-H1975, H1975, read-out: percentage (%) of viable cells H1975
[16] = Homo sapiens, NCI-H1993, H1993, read-out: percentage (%) of viable cells H1993
[17] = Homo sapiens, A549, read-out: percentage (%) of viable cells A549
[18] = Homo sapiens, HCC827, read-out: percentage (%) of viable cells HCC827
[19] = Homo sapiens, SW480, read-out: percentage (%) of viable cells SW480
[20] = RKO, read-out: percentage (%) of viable cells RKO
[21] = Homo sapiens, C8161 cells, read-out: Total branching inhibition in Matrigel C8161
[22] = Homo sapiens, Hs-578T, Hs578T cells, read-out: Total branching inhibition in Matrigel Hs578T
[23] = U118 cells, read-out: Total branching inhibition in Matrigel U118
[24] = U138 cells, read-out: Total branching inhibition in Matrigel U138

For COc1cc2c(Oc3ccc(NS(=O)(=O)c4ccc(F)cc4F)cc3F)ccnc2cc1OCCCN1CCCC(C)C1 (stereo not shown) [Example 47, 2,4-Difluoro-N-(3-fluoro-4-{6-methoxy-7-[3-(3-methyl-piperidin-1-yl)-propoxy]-quinolin-4-yloxy}-phenyl)-benzenesulfonamide], which viability at 10 µM [1, 9] is on record?
Its viability at 10 µM is 21 to 40%.

And the viability at 10 µM [1, 10]?
The viability at 10 µM was 0 to 20%.

And the viability at 10 µM [1, 11]?
Its viability at 10 µM is 41 to 60%.

And the viability at 10 µM [1, 12]?
Its viability at 10 µM is 0 to 20%.

And the viability at 10 µM [1, 13]?
The viability at 10 µM was 41 to 60%.

What about the viability at 10 µM [1, 14] of the same compound?
Its viability at 10 µM is 21 to 40%.

And the viability at 10 µM [1, 15]?
Its viability at 10 µM is 0 to 20%.

And the viability at 10 µM [1, 16]?
Its viability at 10 µM is 0 to 20%.

What about the viability at 10 µM [1, 17] of the same compound?
Its viability at 10 µM is 41 to 60%.

And the viability at 10 µM [1, 18]?
The viability at 10 µM was 41 to 60%.

What about the viability at 10 µM [1, 19] of the same compound?
Its viability at 10 µM is 21 to 40%.

What about the viability at 10 µM [1, 20] of the same compound?
The viability at 10 µM was 0 to 20%.

And the IC50 [2, 21]?
The IC50 was ≤ 5 µM.

What about the IC50 [2, 22] of the same compound?
Its IC50 is ≤ 5 µM.

What about the IC50 [2, 23] of the same compound?
Its IC50 is ≤ 5 µM.

What about the IC50 [2, 24] of the same compound?
Its IC50 is 5 to 50 µM.

What about the IC50 [3] of the same compound?
Its IC50 is 12.5 to 50 µM.

What about the IC50 [4] of the same compound?
The IC50 was 12.5 to 50 µM.

What about the IC50 [5] of the same compound?
The IC50 was ≤ 12.5 µM.

What about the IC50 [6] of the same compound?
Its IC50 is ≤ 12.5 µM.

And the IC50 [7]?
The IC50 was ≤ 12.5 µM.

What about the IC50 [8] of the same compound?
Its IC50 is ≤ 12.5 µM.

What does the source list for COc1cc2c(Oc3ccc(NS(=O)(=O)c4c(F)cccc4F)cc3F)ccnc2cc1OCCCN1CCOCC1 [Example 77, 2,6-Difluoro-N-{3-fluoro-4-[6-methoxy-7-(3-morpholin-4-yl-propoxy)-quinolin-4-yloxy]-phenyl}-benzenesulfonamide]?
viability at 10 µM [1, 9]: 21 to 40%; viability at 10 µM [1, 10]: 0 to 20%; viability at 10 µM [1, 11]: 41 to 60%; viability at 10 µM [1, 12]: 0 to 20%; viability at 10 µM [1, 13]: 21 to 40%; viability at 10 µM [1, 14]: 41 to 60%; viability at 10 µM [1, 15]: 0 to 20%; viability at 10 µM [1, 16]: 21 to 40%; viability at 10 µM [1, 17]: 41 to 60%; viability at 10 µM [1, 18]: > 60%; viability at 10 µM [1, 19]: 0 to 20%; viability at 10 µM [1, 20]: 21 to 40%; IC50 [2, 21]: 5 to 50 µM; IC50 [2, 22]: ≤ 5 µM; IC50 [2, 23]: ≤ 5 µM; IC50 [2, 24]: 5 to 50 µM; IC50 [3]: ≤ 12.5 µM; IC50 [4]: 12.5 to 50 µM; IC50 [5]: ≤ 12.5 µM; IC50 [6]: ≤ 12.5 µM; IC50 [7]: ≤ 12.5 µM; IC50 [8]: ≤ 12.5 µM

With COc1cc2c(Oc3ccc(NS(=O)(=O)c4ccccc4C(F)(F)F)cc3Cl)ccnc2cc1OCCCN1CCN(C)CC1 [Example 87, N-(3-Chloro-4-{6-methoxy-7-[3-(4-methyl-piperazin-1-yl)-propoxy]-quinolin-4-yloxy}-phenyl)-2-trifluoromethyl-benzenesulfonamide] as the compound, how does the viability at 10 µM [1, 9] read?
The viability at 10 µM was 0 to 20%.

And the viability at 10 µM [1, 10]?
Its viability at 10 µM is 41 to 60%.

And the viability at 10 µM [1, 11]?
The viability at 10 µM was 0 to 20%.

And the viability at 10 µM [1, 12]?
The viability at 10 µM was 0 to 20%.

What about the viability at 10 µM [1, 13] of the same compound?
Its viability at 10 µM is 21 to 40%.

What about the viability at 10 µM [1, 14] of the same compound?
The viability at 10 µM was 41 to 60%.

What about the viability at 10 µM [1, 15] of the same compound?
The viability at 10 µM was 0 to 20%.

And the viability at 10 µM [1, 16]?
The viability at 10 µM was 41 to 60%.

What about the viability at 10 µM [1, 17] of the same compound?
The viability at 10 µM was > 60%.

And the viability at 10 µM [1, 18]?
The viability at 10 µM was 41 to 60%.

And the viability at 10 µM [1, 19]?
Its viability at 10 µM is 0 to 20%.

And the viability at 10 µM [1, 20]?
The viability at 10 µM was 41 to 60%.

And the IC50 [2, 21]?
The IC50 was ≤ 5 µM.

What about the IC50 [2, 22] of the same compound?
Its IC50 is ≤ 5 µM.

And the IC50 [2, 23]?
Its IC50 is ≤ 5 µM.

And the IC50 [2, 24]?
Its IC50 is 5 to 50 µM.

What about the IC50 [3] of the same compound?
The IC50 was ≤ 12.5 µM.

And the IC50 [4]?
Its IC50 is 12.5 to 50 µM.

What about the IC50 [5] of the same compound?
Its IC50 is ≤ 12.5 µM.

What about the IC50 [6] of the same compound?
Its IC50 is ≤ 12.5 µM.

What about the IC50 [7] of the same compound?
Its IC50 is ≤ 12.5 µM.

And the IC50 [8]?
Its IC50 is ≤ 12.5 µM.

With COc1cc2c(Oc3ccc(NS(=O)(=O)c4ccccc4C(F)(F)F)cc3F)ccnc2cc1OCCCN1CCCCC1C (stereo not shown) [Example 99, N-(3-Fluoro-4-{6-methoxy-7-[3-(2-methyl-piperidin-1-yl)-propoxy]-quinolin-4-yloxy}-phenyl)-2-trifluoromethyl-benzenesulfonamide] as the compound, how does the viability at 10 µM [1, 9] read?
The viability at 10 µM was > 60%.

And the viability at 10 µM [1, 10]?
Its viability at 10 µM is 0 to 20%.

What about the viability at 10 µM [1, 11] of the same compound?
The viability at 10 µM was 21 to 40%.

What about the viability at 10 µM [1, 12] of the same compound?
The viability at 10 µM was 0 to 20%.

And the viability at 10 µM [1, 13]?
Its viability at 10 µM is 21 to 40%.

What about the viability at 10 µM [1, 14] of the same compound?
Its viability at 10 µM is 41 to 60%.

What about the viability at 10 µM [1, 15] of the same compound?
The viability at 10 µM was 21 to 40%.

And the viability at 10 µM [1, 16]?
The viability at 10 µM was 21 to 40%.

And the viability at 10 µM [1, 17]?
The viability at 10 µM was 21 to 40%.

And the viability at 10 µM [1, 18]?
The viability at 10 µM was 41 to 60%.

What about the viability at 10 µM [1, 19] of the same compound?
The viability at 10 µM was 0 to 20%.

What about the viability at 10 µM [1, 20] of the same compound?
Its viability at 10 µM is 21 to 40%.

What about the IC50 [2, 21] of the same compound?
Its IC50 is 5 to 50 µM.

What about the IC50 [2, 22] of the same compound?
Its IC50 is ≤ 5 µM.

And the IC50 [2, 23]?
The IC50 was ≤ 5 µM.

What about the IC50 [2, 24] of the same compound?
Its IC50 is ≤ 5 µM.

And the IC50 [3]?
Its IC50 is 12.5 to 50 µM.

What about the IC50 [4] of the same compound?
Its IC50 is ≤ 12.5 µM.

What about the IC50 [5] of the same compound?
The IC50 was ≤ 12.5 µM.

And the IC50 [6]?
Its IC50 is ≤ 12.5 µM.

What about the IC50 [7] of the same compound?
The IC50 was ≤ 12.5 µM.

And the IC50 [8]?
Its IC50 is ≤ 12.5 µM.

From US9169241B2, “Quinolinyloxyphenylsulfonamides” (Max-Planck-Gesellschaft Zur Forderung der Wissenschaften …, priority 2009, dated 2015)
